# Source: patent publication US20250002471A1 (Gilead Sciences, Inc., priority 2020, published 2025)
# Assays:
# [1] = target: T1, TLR7 (Homo sapiens, UniProt Q9NYK1); experiment: Human PBMC cell-based assay, TLR7 agonist GS-986 stimulation, cytokine (IL-6 and IFNα) readout; details: human PBMCs, GS-986 400 nM, 6 hours; Table 26; read-out: TLR-7 EC50
# T1 construct: lymphocytes, monocytes and dendritic cells that express TLR7, TLR8 and TLR9; endogenous in cells; host or cells: human PBMCs from healthy donors
# T1 sequence (Q9NYK1 27-1049): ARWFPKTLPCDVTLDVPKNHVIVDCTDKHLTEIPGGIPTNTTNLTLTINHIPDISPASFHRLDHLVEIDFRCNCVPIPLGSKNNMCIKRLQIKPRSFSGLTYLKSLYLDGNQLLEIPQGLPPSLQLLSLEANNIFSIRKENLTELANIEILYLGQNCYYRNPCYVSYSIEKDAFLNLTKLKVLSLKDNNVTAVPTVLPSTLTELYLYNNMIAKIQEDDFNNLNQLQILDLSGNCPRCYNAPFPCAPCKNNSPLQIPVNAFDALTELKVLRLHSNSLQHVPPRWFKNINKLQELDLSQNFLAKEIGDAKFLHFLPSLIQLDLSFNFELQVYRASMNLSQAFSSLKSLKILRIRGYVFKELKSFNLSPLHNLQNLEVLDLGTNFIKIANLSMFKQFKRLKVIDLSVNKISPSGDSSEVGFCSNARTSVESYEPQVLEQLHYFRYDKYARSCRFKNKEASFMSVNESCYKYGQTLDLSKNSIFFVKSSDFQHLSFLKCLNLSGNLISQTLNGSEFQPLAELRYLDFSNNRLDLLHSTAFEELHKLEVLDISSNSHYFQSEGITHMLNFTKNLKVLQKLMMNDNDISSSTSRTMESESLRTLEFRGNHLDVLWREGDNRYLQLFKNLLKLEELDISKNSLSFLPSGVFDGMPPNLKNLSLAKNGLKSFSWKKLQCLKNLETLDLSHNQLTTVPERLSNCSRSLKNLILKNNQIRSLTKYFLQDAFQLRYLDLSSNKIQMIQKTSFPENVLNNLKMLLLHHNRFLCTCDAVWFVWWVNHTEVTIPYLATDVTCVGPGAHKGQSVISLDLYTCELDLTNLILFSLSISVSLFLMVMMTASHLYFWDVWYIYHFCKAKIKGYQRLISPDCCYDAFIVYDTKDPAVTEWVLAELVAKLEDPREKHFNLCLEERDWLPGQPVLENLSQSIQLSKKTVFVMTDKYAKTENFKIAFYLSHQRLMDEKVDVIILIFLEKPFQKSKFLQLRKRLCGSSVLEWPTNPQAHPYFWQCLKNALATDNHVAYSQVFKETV
# Summary of the method: (§1)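 Cryopreserved healthy-donor PBMCs (100,000 cells/well, RPMI-1640 + 10% FBS) preincubated 1 h at 37 °C with antagonist (10-point dose response), then stimulated 6 h with GS-986 (400 nM final, TLR7) or ODN-2216 (3 μM final, TLR9). Supernatant IL-6 and IFNα measured by electrochemiluminescence immunoassay; EC50 from sigmoidal fit.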
# [2] = target: T2, TLR9 (Homo sapiens, UniProt Q9NR96); experiment: Human PBMC cell-based assay, TLR9 agonist ODN-2216 stimulation, cytokine (IL-6 and IFNα) readout; details: human PBMCs, ODN-2216 3 μM, 6 hours; Table 26; read-out: TLR-9 EC50
# T2 construct: lymphocytes, monocytes and dendritic cells that express TLR7, TLR8 and TLR9; endogenous in cells; host or cells: human PBMCs from healthy donors
# T2 sequence (Q9NR96 26-1032): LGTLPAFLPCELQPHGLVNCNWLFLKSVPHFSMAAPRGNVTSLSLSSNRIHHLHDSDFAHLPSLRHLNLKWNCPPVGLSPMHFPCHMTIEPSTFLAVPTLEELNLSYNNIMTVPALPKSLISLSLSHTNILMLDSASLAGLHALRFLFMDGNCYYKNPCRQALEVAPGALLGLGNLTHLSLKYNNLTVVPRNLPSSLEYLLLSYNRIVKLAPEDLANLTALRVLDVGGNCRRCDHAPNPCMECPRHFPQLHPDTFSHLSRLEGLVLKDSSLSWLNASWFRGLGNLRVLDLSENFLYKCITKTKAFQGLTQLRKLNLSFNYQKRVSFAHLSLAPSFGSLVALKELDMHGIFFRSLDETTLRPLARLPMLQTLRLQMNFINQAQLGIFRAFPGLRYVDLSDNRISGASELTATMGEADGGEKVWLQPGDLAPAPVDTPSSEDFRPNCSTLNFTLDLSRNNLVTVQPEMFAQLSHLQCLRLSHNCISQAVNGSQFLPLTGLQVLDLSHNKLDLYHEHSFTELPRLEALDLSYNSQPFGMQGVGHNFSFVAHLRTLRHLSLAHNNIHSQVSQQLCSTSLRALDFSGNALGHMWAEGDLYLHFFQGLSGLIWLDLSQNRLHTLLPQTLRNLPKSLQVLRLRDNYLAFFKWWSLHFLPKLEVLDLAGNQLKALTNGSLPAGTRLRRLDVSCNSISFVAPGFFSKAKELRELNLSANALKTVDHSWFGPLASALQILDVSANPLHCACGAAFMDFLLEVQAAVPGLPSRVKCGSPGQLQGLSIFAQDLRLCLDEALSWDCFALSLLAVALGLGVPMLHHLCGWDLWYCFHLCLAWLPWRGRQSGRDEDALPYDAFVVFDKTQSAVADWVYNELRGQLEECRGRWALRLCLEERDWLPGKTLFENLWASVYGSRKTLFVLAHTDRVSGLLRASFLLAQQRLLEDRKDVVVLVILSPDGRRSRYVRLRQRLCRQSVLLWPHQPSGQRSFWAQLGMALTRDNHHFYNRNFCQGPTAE
# Summary of the method: as §1
SMILES,EC50 [1] [nM],EC50 [2] [nM]
"Cc1cc(-c2[nH]c3cc(C#CC4CCNCC4)ccc3c2C)cc(C)n1 [Example 100, 2-(2,6-dimethylpyridin-4-yl)-3-methyl-6-(piperidin-4-ylethynyl)-1H-indole]",437,101
Cc1cc(-c2[nH]c3cc(-c4ccc(N5CCN(C(=O)[C@@H]6COCCN6)CC5)nc4)ccc3c2C)cc(C)n1 [Example 110],32.2,63.6
Cc1cc(-c2[nH]c3cc(-c4ccc(N5CCN(C(=O)[C@H]6COCCN6)CC5)nc4)ccc3c2C)cc(C)n1 [Example 111],56.8,59.2
Cc1cc(-c2[nH]c3cc(-c4ccc(N5CCN(C(=O)[C@@H]6CNCCO6)CC5)nc4)ccc3c2C)cc(C)n1 [Example 112],58.3,114
"Cc1cc(-c2[nH]c3cc(-c4ccc(N5CC[N+](CCN(C)C)(CCN(C)C)CC5)nc4)ccc3c2C)cc(C)n1 [Example 115, 1,1-bis(2-(dimethylamino)ethyl)-4-(5-(2-(2,6-dimethylpyridin-4-yl)-3-methyl-1H-indol-6-yl)pyridin-2-yl)piperazin-1-ium]",394,189
"Cc1cc(-c2[nH]c3cc(-c4cccc(C(=O)N5CC[C@H](N)C5)c4)ccc3c2C)cc(C)n1 [Example 119, (S)-(3-aminopyrrolidin-1-yl)(3-(2-(2,6-dimethylpyridin-4-yl)-3-methyl-1H-indol-6-yl)phenyl)methanone]",54.1,193
Cc1cc(-c2[nH]c3cc(-c4cccc(C(=O)N5CC[C@@H](N)C5)c4)ccc3c2C)cc(C)n1 [Example 121],134,112
Cc1cc(-c2[nH]c3cc(-c4cccc(C(=O)N5CCC(N)CC5)c4)ccc3c2C)cc(C)n1 [Example 122],226,87.2
Cc1cc(-c2[nH]c3cc(-c4cccc(C(=O)N5CC6CNCC6C5)c4)ccc3c2C)cc(C)n1 (stereo not shown) [Example 123],374,274
Cc1cc(-c2[nH]c3cc(-c4ccc(C(=O)N5CCC(N)CC5)cc4)ccc3c2C)cc(C)n1 [Example 125],74.8,98.3
Cc1cc(-c2[nH]c3cc(-c4ccc(C(=O)N5CC6CNCC6C5)cc4)ccc3c2C)cc(C)n1 (stereo not shown) [Example 126],48,294
Cc1cc(-c2[nH]c3cc(-c4cccc(C(=O)N5CCN6CCC5C6)c4)ccc3c2C)cc(C)n1 (stereo not shown) [Example 127],98.9,74.7
Cc1cc(-c2[nH]c3cc(-c4ccc(C(=O)N5CCN6CCC5C6)cc4)ccc3c2C)cc(C)n1 (stereo not shown) [Example 128],146,83.3

# The remaining lines, values ahead:
EC50 [1] [nM],EC50 [2] [nM],SMILES
1720,316,"Cc1cc(-c2[nH]c3cc(-c4ccc(N5CCNCC5)nc4)ccc3c2C#N)cc(C)n1 [Example 101, 2-(2,6-dimethylpyridin-4-yl)-6-(6-(piperazin-1-yl)pyridin-3-yl)-1H-indole-3-carbonitrile]"
1730,217,"CC(=O)c1c(-c2cc(C)nc(C)c2)[nH]c2cc(-c3ccc(N4CCNCC4)nc3)ccc12 [Example 102, 1-(2-(2,6-dimethylpyridin-4-yl)-6-(6-(piperazin-1-yl)pyridin-3-yl)-1H-indol-3-yl)ethan-1-one]"
35.1,45.7,"Cc1cc(-c2[nH]c3cc(-c4ccc(N5CCCNCC5)nc4)ccc3c2C)cc(C)n1 [Example 103, 6-(6-(1,4-diazepan-1-yl)pyridin-3-yl)-2-(2,6-dimethylpyridin-4-yl)-3-methyl-1H-indole]"
8.3,44.1,"Cc1cc(-c2[nH]c3cc(-c4ccc(N5CCC(N)CC5)nc4)ccc3c2C2CC2)cc(C)n1 [Example 104, 1-(5-(3-cyclopropyl-2-(2,6-dimethylpyridin-4-yl)-1H-indol-6-yl)pyridin-2-yl)piperidin-4-amine]"
0.9,31.2,Cc1cc(-c2[nH]c3cc(-c4ccc(N5CC[C@@H](N)C5)nc4)ccc3c2C2CC2)cc(C)n1 [Example 105]
39.8,18.2,"Cc1cc(-c2[nH]c3cc(-c4ccc(N5CCN(C(=O)CN(C)C)CC5)nc4)ccc3c2C)cc(C)n1 [Example 106, 2-(dimethylamino)-1-(4-(5-(2-(2,6-dimethylpyridin-4-yl)-3-methyl-1H-indol-6-yl)pyridin-2-yl)piperazin-1-yl)ethan-1-one]"
224,717,CC(=O)N1CCN(c2ccc(-c3ccc4c(C)c(-c5cc(C)nc(C)c5)[nH]c4c3)cn2)CC1 [Example 107]
44.5,32.1,Cc1cc(-c2[nH]c3cc(-c4ccc(N5CCN(C(=O)[C@@H]6CCCN6C)CC5)nc4)ccc3c2C)cc(C)n1 [Example 108]
15.3,35.5,Cc1cc(-c2[nH]c3cc(-c4ccc(N5CCN(C(=O)[C@H]6CCCN6C)CC5)nc4)ccc3c2C)cc(C)n1 [Example 109]
68.8,123,"CNC(=O)CN1CCN(c2ccc(-c3ccc4c(C)c(-c5cc(C)nc(C)c5)[nH]c4c3)cn2)CC1 [Example 113, 2-(4-(5-(2-(2,6-dimethylpyridin-4-yl)-3-methyl-1H-indol-6-yl)pyridin-2-yl)piperazin-1-yl)-N-methylacetamide]"
21.6,36.1,"Cc1cc(-c2[nH]c3cc(-c4ccc(N5CCN(CCN(C)C)CC5)nc4)ccc3c2C)cc(C)n1 [Example 114, 2-(4-(5-(2-(2,6-dimethylpyridin-4-yl)-3-methyl-1H-indol-6-yl)pyridin-2-yl)piperazin-1-yl)-N,N-dimethylethan-1-amine]"
140,67.9,Cc1cc(-c2[nH]c3cc(-c4ccc(N5CCN(CC(=O)N(C)C)CC5)nc4)ccc3c2C)cc(C)n1 [Example 116]
72.3,69.4,COCCN1CCN(c2ccc(-c3ccc4c(C)c(-c5cc(C)nc(C)c5)[nH]c4c3)cn2)CC1 [Example 117]
5.8,58.7,Cc1cc(-c2[nH]c3cc(-c4ccc(N5CCN(CC(C)O)CC5)nc4)ccc3c2C)cc(C)n1 (stereo not shown) [Example 118]
152,89.5,"Cc1cc(-c2[nH]c3cc(-c4ccc(C(=O)N5CC[C@H](N)C5)cc4)ccc3c2C)cc(C)n1 [Example 120, (S)-(3-aminopyrrolidin-1-yl)(4-(2-(2,6-dimethylpyridin-4-yl)-3-methyl-1H-indol-6-yl)phenyl)methanone]"
55.5,111,Cc1cc(-c2[nH]c3cc(-c4ccc(C(=O)N5CC[C@@H](N)C5)cc4)ccc3c2C)cc(C)n1 [Example 124]
